Source: patent publication US20250197490A1, “ANTI-CORTICOTROPIN-RELEASING HORMONE ANTIBODIES AND USE IN CONGENITAL ADRENAL HYPERPLASIA” (HBM ALPHA THERAPEUTICS, INC., priority 2021, published 2025)

System: human CRHR1
Assay: CRH-induced luciferase reporter blocking in CHO-CRE-hCRHR1 cells
Assay type: cell-based
Conditions: in words
Experimental: To generate a CHO-CRE-Luciferase Reporter stable cell line, a mixture of 2 million CHO-K1 cells with 10 μg of pGL4.29/luc2P/CRE/Hygro plasmid in 100 μl of Ingenio solution was transferred into electroporation cuvettes and subjected to 1 or 2 pulses using an Electro Cell Manipulator (950 uF and 120V). The processed cells were transferred into a 6-well plate with 2 mL of Dulbecco's Modified Eagle's Medium (DMEM)/F12 with 10% fetal bovine serum (FBS). After 24 hours, selection antibiotic hygromycin at 500 μg/ml was added to the cells. […] Using matrix dilution, the pool of CHO-CRE cells was subcloned into 96-well plates. Individual stable clones were harvested when selected colonies became obvious. Positive clones were validated using a series of diluted forskolin. Validated positive clones were frozen for the future use.
To create CHO-CRE-hCRHR1,-hCRHR2,-mCRHR1, and -mCRHR2 reporter cell lines, pcDNA3.1-hCRHR1,-hCRHR2,-mCRHR1, and -mCRHR2 were introduced into CHO-CRE cells established above by electroporation as described above. Selection antibiotics hygromycin at 500 μg/ml and G418 at 1,000 μg/ml were employed. […]
50 μl of 4× serially diluted antibodies was added (8 points, ¼ diluted by growth medium) to plates containing CHO-CRE-hCRHR1 cells, and 50 μl of 4×CRH (4× is 2 nM, final is 0.5 nM) was added. […] Plates were read in a luciferase plate reader (En Vision, PerkinElmer).

## CCCCN(CC)c1nc(C)nc2c1c(C)c(C)n2-c1c(C)cc(C)cc1C [Antalarmin, N-butyl-N-ethyl-(2,5,6-trimethyl-7-(2,4,6-trimethylphenyl)-7H-pyrrolo (2,3-d)pyrimidin-4-yl)amine, reference compound]
  blocking activity in human CRHR1 luciferase reporter assay (CRH-mediated luciferase expression): blocked
